Series [1] concerns the target T1, recombinant human BACE1 (Homo sapiens, UniProt P56817).
T1 construct: purchased R&D Systems
Briefly: BACE1 biochemical enzymatic assay (HTRF, APP-derived Swedish-mutation peptide substrate). The note with it: HTRF, 2 h at 25 °C, APP-derived peptide substrate. Here is the method: (§1) BACE1 enzymatic activity was determined in a homogeneous time-resolved fluorescence (HTRF) assay, and BACE2 enzymatic activity was determined in an enzyme-linked immunosorbent assay (ELISA)-based assay using an APP-derived peptide that contains the K670N + M671L (Swedish) double mutation of the APP β secretase cleavage site as a substrate. The recombinant human BACE1 (R&D Systems, MN, USA) was incubated (2 h at 25 °C) with the substrate and the inhibitor (9 or 10 concentrations at 1/5 steps from 10 μM). Fluorescence intensity was measured (excitation wavelength: 320 nm, measuring wavelength: 620 nm and 665 nm) using RUBYstar (BMG LABTECH, Ortenberg, Germany). […] The inhibitory potential of the compounds on the enzymatic activity of BACE1 and BACE2 was determined by performing concentration–response curves.

Series [2] concerns recombinant human BACE1. The description is as above. The note with it: selectivity for BACE1 over BACE2 from IC50 values. The protocol: as §1
In series [3] the target is T2, recombinant human BACE2 ectodomain (Homo sapiens, UniProt Q9Y5Z0).
T2 sequence (Q9Y5Z0 63-473 limits assumed): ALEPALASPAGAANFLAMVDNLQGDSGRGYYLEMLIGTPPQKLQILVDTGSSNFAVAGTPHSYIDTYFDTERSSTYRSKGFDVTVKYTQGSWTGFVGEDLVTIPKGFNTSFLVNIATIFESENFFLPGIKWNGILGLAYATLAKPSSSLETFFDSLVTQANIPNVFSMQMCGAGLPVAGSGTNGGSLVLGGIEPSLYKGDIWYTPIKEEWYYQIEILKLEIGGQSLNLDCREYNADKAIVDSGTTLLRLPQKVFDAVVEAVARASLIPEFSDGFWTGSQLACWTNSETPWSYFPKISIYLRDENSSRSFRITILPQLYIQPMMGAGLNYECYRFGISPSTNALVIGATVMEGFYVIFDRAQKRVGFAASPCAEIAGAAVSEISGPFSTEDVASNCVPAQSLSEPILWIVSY
Briefly: BACE2 biochemical enzymatic assay (ELISA-based, APP-derived Swedish-mutation peptide substrate). The note with it: 1 h at 37 °C. The protocol: BACE1 enzymatic activity was determined in a homogeneous time-resolved fluorescence (HTRF) assay, and BACE2 enzymatic activity was determined in an enzyme-linked immunosorbent assay (ELISA)-based assay using an APP-derived peptide that contains the K670N + M671L (Swedish) double mutation of the APP β secretase cleavage site as a substrate. The recombinant human BACE1 (R&D Systems, MN, USA) was incubated (2 h at 25 °C) with the substrate and the inhibitor (9 or 10 concentrations at 1/5 steps from 10 μM). Fluorescence intensity was measured (excitation wavelength: 320 nm, measuring wavelength: 620 nm and 665 nm) using RUBYstar (BMG LABTECH, Ortenberg, Germany). The recombinant human BACE2 ectodomain was incubated (1 h at 37 °C) with the substrate and the inhibitor (10 concentrations at 1/4 steps from 25 μM). The count of chemi-luminescence in each well was measured using ARVOTM MX 1420 Multilabel Counter (PerkinElmer, Shelton, CT, USA). The inhibitory potential of the compounds on the enzymatic activity of BACE1 and BACE2 was determined by performing concentration–response curves.
For orientation: ELISA stands for enzyme-linked immunosorbent assay.

The next series relates to brain Aβ40. Briefly: Brain Aβ levels in mice fed inhibitor pellets (Aβ40 ELISA, soluble brain fraction). It is filed as in vivo, mouse. The note with it: C57BL/6 mice, food pellets with inhibitor for one week, level reduced to % of vehicle. An excerpt:
C57BL/6 mice (CLEA Japan Inc., Tokyo, Japan) were fed with food pellets containing 0.02% elenbecestat, 0.0125% Shionogi compound 1, and 0.025% Shionogi compound 2 for one week (performed at AAALAC compatible facilities). Mouse cerebral hemispheres were removed and frozen immediately with liquid nitrogen. The frozen cerebral hemispheres were transferred to a homogenized tube containing ceramic beads in an 8-fold volume of the weight of an extraction buffer (containing 0.4% DEA (diethylamine), 50 mmol/L NaCl, completed with protease inhibitor (Roche, Basel, Switzerland)) and incubated on ice for 20 min. Thereafter, the hemispheres were homogenized using MP BIO FastPrep-24 (MP-Biomedicals, Irvine, CA, USA) with Lysing matrix D 1.4 mm ceramic beads (20 s at 6 m/s). After spinning for 1 min, the supernatant was transferred to a centrifugation tube and centrifuged at 221,000× g, 4 °C, for 50 min. After centrifugation, the supernatant was used for measuring the brain Aβ40. The brain Aβ40 was measured using Human/Rat Amyloid beta 40 ELISA Kit (FUJIFILM Wako Pure Chemical Corporation, Osaka, Japan). The assay procedure was conducted according to instructions.

Series [4] has as its system soluble Seizure protein 6 (sSez6). The series is described as follows: Soluble Sez6 levels in the mouse brain (Western blot). It is filed as in vivo. The note with it: C57BL/6 mice, food pellets with inhibitor for one week, soluble brain fraction; level reduced to % of vehicle. From the text:
C57BL/6 mice (CLEA Japan Inc., Tokyo, Japan) were fed with food pellets containing 0.02% elenbecestat, 0.0125% Shionogi compound 1, and 0.025% Shionogi compound 2 for one week (performed at AAALAC compatible facilities). Mouse cerebral hemispheres were removed and frozen immediately with liquid nitrogen. The frozen cerebral hemispheres were transferred to a homogenized tube containing ceramic beads in an 8-fold volume of the weight of an extraction buffer (containing 0.4% DEA (diethylamine), 50 mmol/L NaCl, completed with protease inhibitor (Roche, Basel, Switzerland)) and incubated on ice for 20 min. […] The brain Aβ40 was measured using Human/Rat Amyloid beta 40 ELISA Kit (FUJIFILM Wako Pure Chemical Corporation, Osaka, Japan). […]
The brain samples were heated at 95 °C in 1% SDS sample buffer with 100 mM DTT for 5 min, separated by SDS-PAGE on 4–20% precast polyacrylamide gels (Biorad, Feldkirchen, Germany), and transferred to PVDF membranes (Biorad, Feldkirchen, Germany). […] After final washes with PBST, the membranes were incubated with ECL prime for a few minutes, and signal was detected with LAS-3000 (FUJIFILM Wako Pure Chemical Corporation, Osaka, Japan). Densitometry quantification of Western blot signal was conducted using Multi Gauge V3.1 software (FUJIFILM Wako Pure Chemical Corporation, Osaka, Japan).

Series [5] relates to dendritic spines of layer V pyramidal neurons, somatosensory cortex. Briefly: Longitudinal in vivo two-photon dendritic spine imaging in GFP-M mice. The note with it: inhibitor food pellets for 21 days, compared to vehicle. Set-up: species or system mouse.
Another series deals with cognition. The note with it: in vivo; cited from earlier work.
In series [6] the test system is dendritic spines of layer V pyramidal neurons, somatosensory cortex. The note with it: mouse, in vivo; cited from earlier work.

These results are taken from publication PMC10418759, “New Highly Selective BACE1 Inhibitors and Their Effects on Dendritic Spine Density In Vivo” (International Journal of Molecular Sciences, 2023).

T1 sequence (P56817 46-501): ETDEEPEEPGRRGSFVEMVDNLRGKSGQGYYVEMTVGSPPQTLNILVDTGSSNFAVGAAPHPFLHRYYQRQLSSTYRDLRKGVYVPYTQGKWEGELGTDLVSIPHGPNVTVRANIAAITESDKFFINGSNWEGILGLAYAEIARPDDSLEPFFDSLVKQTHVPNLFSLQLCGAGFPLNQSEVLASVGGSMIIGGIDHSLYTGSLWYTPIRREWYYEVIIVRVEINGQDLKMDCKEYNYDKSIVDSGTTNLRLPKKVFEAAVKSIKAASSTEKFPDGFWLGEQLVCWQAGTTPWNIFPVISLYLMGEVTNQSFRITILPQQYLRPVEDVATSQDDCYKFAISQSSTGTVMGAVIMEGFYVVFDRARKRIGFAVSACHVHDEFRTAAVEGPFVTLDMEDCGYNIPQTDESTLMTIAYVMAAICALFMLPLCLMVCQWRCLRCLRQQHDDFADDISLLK

A word on the IC50: it is the concentration that inhibits the measured activity by half. As to `C[C@H]1OC[C@]2(c3cc(NC(=O)c4cnc(C(F)F)cn4)ccc3F)N=C(N)SC[C@H]12` [Elenbecestat, elenbecestat], the IC50 was 3.9 nM at recombinant human BACE1 [1] and 46 nM in series [3]. Moreover, in the series on recombinant human BACE1 [2], the “BACE1/BACE2 (fold)” value is 12 fold. Moreover, the “Brain Aβ level compared to vehicle” value with brain Aβ40 is 46%. The “Brain sSez6 level compared to vehicle” value in series [4] is 27%. In addition, in series [5], the Dendritic spine density entry was “do not alter dendritic spine density”. In addition, the “Cognitive worsening in the clinic” value in the series with cognition is listed as “did not show cognitive worsening”.

As to `CN1C(=N)N[C@](C)(c2cc(NC(=O)c3ccc(F)cn3)ccc2F)CS1(=O)=O` [verubecesat, verubecestat], in series [6], the “Dendritic spine plasticity in the cerebral cortex” value is “significant decrease in dendritic spine plasticity”.
